Measured values taken from the supplement of paper PMC10307832.

How the values were obtained:
Test in all cases: relative viability (nuclei count vs DMSO), 5 days (fraction); higher = more cells survive
Staurosporine + Olaparib = compound: CN[C@@H]1C[C@H]2O[C@@](C)([C@@H]1OC)n1c3ccccc3c3c4c(c5c6ccccc6n2c5c31)C(=O)NC4 [Staurosporine] + O=C(c1cc(Cc2n[nH]c(=O)c3ccccc23)ccc1F)N1CCN(C(=O)C2CC2)CC1 [Olaparib] (partner 8 µM)
Procedure, shortened: (§1)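 Medians of duplicate plates are given as relative viability. That measure is the nuclei count in treated wells divided by the count in vehicle wells. Counts were taken on 4× images of lung cancer cell lines in 1536-well plates, 5 days after pin-tool dosing the day after seeding with one drug alone or a fixed anchor-drug dose plus five library-drug doses (not always all listed) in √10 steps.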

[1] = compound: O=c1[nH]cc(F)c(=O)[nH]1 [5-Fluorouracil] + Nc1ncn([C@H]2C[C@H](O)[C@@H](CO)O2)c(=O)n1 [Decitabine] (partner 2 µM)
Procedure, shortened: as §1

[2] = compound: O=c1[nH]cc(F)c(=O)[nH]1 [5-Fluorouracil] + CS(=O)(=O)CCNCc1ccc(-c2ccc3ncnc(Nc4ccc(OCc5cccc(F)c5)c(Cl)c4)c3c2)o1 [Lapatinib] (partner 2 µM)
Procedure, shortened: as §1

[3] = compound: CN[C@@H]1C[C@H]2O[C@@](C)([C@@H]1OC)n1c3ccccc3c3c4c(c5c6ccccc6n2c5c31)C(=O)NC4 [Staurosporine] + CCNC(=O)c1noc(-c2cc(C(C)C)c(O)cc2O)c1-c1ccc(CN2CCOCC2)cc1 [Luminespib] (partner 0.01 µM)
Procedure, shortened: as §1

Cell Line | relative viability (Staurosporine + Olaparib; first compound 0.005 µM) | relative viability (Staurosporine + Olaparib; first compound 0.01581 µM) | relative viability (Staurosporine + Olaparib; first compound 0.05 µM) | relative viability (Staurosporine + Olaparib; first compound 0.1581 µM) | relative viability (Staurosporine + Olaparib; first compound 0.5 µM) | relative viability ([1]; first compound 0.02 µM) | relative viability ([1]; first compound 0.2 µM) | relative viability ([1]; first compound 0.6325 µM) | relative viability ([1]; first compound 2 µM) | relative viability ([2]; first compound 0.02 µM) | relative viability ([2]; first compound 0.2 µM) | relative viability ([2]; first compound 0.6325 µM) | relative viability ([2]; first compound 2 µM) | relative viability ([3]; first compound 0.005 µM) | relative viability ([3]; first compound 0.01581 µM) | relative viability ([3]; first compound 0.05 µM) | relative viability ([3]; first compound 0.1581 µM) | relative viability ([3]; first compound 0.5 µM)
NCI-H460 | 0.27 | 0.134 | 0.159 | 0.0506 | 0.0242 | 0.484 | 0.38 | 0.111 | 0.0586 | 0.964 | 0.446 | 0.106 | 0.0598 | 0.0316 | 0.0208 | 0.0244 | 0.0122 | 0.0179
NCI-H520 | 0.347 | 0.302 | 0.211 | 0.138 | 0.139 | 0.505 | 0.556 | 0.479 | 0.552 | 0.952 | 0.856 | 0.459 | 0.333 | 0.194 | 0.309 | 0.233 | 0.212 | 0.185
NCI-H596 | 0.854 | 0.542 | 0.302 | 0.25 | 0.297 | 1.15 | 0.999 | 0.902 | 0.706 | 1.05 | 0.944 | 0.645 | 0.516 | 1.19 | 0.719 | 0.509 | 0.237 | 0.3
NCI-H647 | 0.275 | 0.199 | 0.0866 | 0.0394 | 0.0357 | 0.367 | 0.383 | 0.39 | 0.391 | 1.14 | 1.2 | 1.07 | 0.687 | 0.128 | 0.174 | 0.0674 | 0.0695 | 0.0608
NCI-H650 | 0.313 | 0.246 | 0.25 | 0.229 | 0.124 | 0.313 | 0.312 | 0.326 | 0.288 | 0.555 | 0.681 | 0.524 | 0.455 | 0.474 | 0.248 | 0.235 | 0.11 | 0.092
NCI-H661 | 0.65 | 0.556 | 0.521 | 0.333 | 0.175 | 0.574 | 0.596 | 0.495 | 0.551 | 0.482 | 0.526 | 0.558 | 0.51 | 0.986 | 0.707 | 0.604 | 0.436 | 0.211
NCI-H727 | 0.638 | 0.422 | 0.413 | 0.434 | 0.419 | 0.844 | 0.996 | 0.822 | 0.844 | 1.08 | 1 | 0.743 | 0.594 | 0.291 | 0.373 | 0.252 | 0.223 | 0.183
NCI-H838 | 0.24 | 0.175 | 0.154 | 0.122 | 0.0873 | 0.48 | 0.447 | 0.359 | 0.291 | 0.918 | 1.03 | 0.433 | 0.271 | 0.247 | 0.135 | 0.138 | 0.107 | 0.113
NCI-H1355 | 0.751 | 0.289 | 0.253 | 0.185 | 0.173 | 0.332 | 0.332 | 0.26 | 0.245 | 0.97 | 0.899 | 0.39 | 0.311 | 0.591 | 0.278 | 0.212 | 0.209 | 0.191
NCI-H1395 | 0.443 | 0.395 | 0.379 | 0.328 | 0.274 | 0.802 | 0.781 | 0.771 | 0.736 | 0.724 | 1.12 | 1.01 | 0.825 | 0.613 | 0.507 | 0.349 | 0.318 | 0.346
NCI-H1437 | 0.506 | 0.456 | 0.401 | 0.168 | 0.106 | 0.522 | 0.308 | 0.28 | 0.237 | – | 0.231 | 0.142 | 0.142 | 1.05 | – | 0.774 | 0.367 | 0.26
NCI-H1650 | 0.703 | 0.598 | 0.385 | 0.306 | 0.0918 | 0.573 | 0.473 | 0.348 | 0.271 | 0.707 | 0.758 | 0.563 | 0.445 | 0.168 | 0.18 | 0.183 | 0.16 | 0.169
NCI-H1651 | 0.153 | 0.159 | 0.168 | 0.15 | 0.126 | 0.598 | 0.613 | 0.321 | 0.264 | 1.04 | 0.701 | 0.471 | 0.435 | 0.793 | 0.614 | 0.459 | 0.173 | 0.116
NCI-H1666 | 0.682 | 0.567 | 0.583 | 0.476 | 0.432 | 0.706 | 0.564 | 0.534 | 0.502 | 0.726 | 0.418 | 0.378 | 0.318 | 0.758 | 0.582 | 0.604 | 0.38 | 0.279
NCI-H1734 | 0.566 | 0.354 | 0.257 | 0.194 | 0.0713 | 0.536 | 0.518 | 0.499 | 0.396 | 1.11 | 1.14 | 0.808 | 0.392 | 0.112 | 0.0831 | 0.511 | 0.0656 | 0.0444
NCI-H1755 | 0.731 | 0.421 | 0.25 | 0.236 | 0.234 | 0.747 | 0.616 | 0.433 | 0.394 | 1.06 | 0.848 | 0.327 | 0.263 | 0.276 | 0.214 | 0.155 | 0.195 | 0.155
NCI-H1792 | 0.147 | 0.0705 | 0.0822 | 0.097 | 0.0652 | 0.514 | 0.473 | 0.27 | 0.202 | 0.893 | 0.853 | 0.235 | 0.161 | 0.459 | 0.287 | 0.18 | 0.188 | 0.199
NCI-H1793 | 0.815 | – | 0.3 | 0.15 | 0.14 | 0.617 | 0.469 | 0.487 | 0.557 | 0.581 | 0.853 | 0.471 | 0.347 | 0.252 | – | 0.188 | 0.131 | 0.13
